Patent US8143244B2, “Cyclopropyl fused indolobenzazepine HCV NS5B inhibitors” (Bristol-Myers Squibb Company, priority 2009, dated 2012)
Read-outs that look alike come from different tables or passages of the source.

Legend:
HCV NS5B = target: T1, HCV NS5B (Hepatitis C virus genotype 1b, UniProt Q9WMX2); experiment: HCV NS5B RdRp enzyme assay; assay type: biochemical; conditions: HCV NS5B RdRp genotype 1b
T1 construct: The protein was expressed with an 18 amino acid C-terminal truncation to enhance the solubility; made in house; host or cells: E. coli BL21(DE3)
T1 sequence (Q9WMX2 2420-2992): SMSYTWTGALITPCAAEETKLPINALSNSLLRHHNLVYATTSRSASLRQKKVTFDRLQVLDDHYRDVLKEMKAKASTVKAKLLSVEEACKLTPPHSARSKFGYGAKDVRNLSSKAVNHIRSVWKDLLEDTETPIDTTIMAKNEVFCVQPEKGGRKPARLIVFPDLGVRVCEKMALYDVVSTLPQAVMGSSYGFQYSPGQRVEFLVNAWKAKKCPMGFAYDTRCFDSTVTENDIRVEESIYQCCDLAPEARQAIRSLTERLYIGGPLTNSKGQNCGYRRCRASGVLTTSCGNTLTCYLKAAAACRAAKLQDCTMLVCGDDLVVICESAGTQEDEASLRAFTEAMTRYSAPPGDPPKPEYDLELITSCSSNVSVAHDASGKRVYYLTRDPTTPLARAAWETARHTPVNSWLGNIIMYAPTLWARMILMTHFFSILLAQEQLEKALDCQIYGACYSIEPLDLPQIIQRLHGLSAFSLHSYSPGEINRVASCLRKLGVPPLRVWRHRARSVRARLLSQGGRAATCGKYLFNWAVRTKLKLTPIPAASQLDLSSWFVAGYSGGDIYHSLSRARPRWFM
Description: HCV NS5B RdRp cloning, expression, and purification. The cDNA encoding the NS5B protein of HCV, genotype 1b, was cloned into the pET21a expression vector. The protein was expressed with an 18 amino acid C-terminal truncation to enhance the solubility. The E. coli competent cell line BL21(DE3) was used for expression of the protein. Cultures were grown at 37° C. for ˜4 hours until the cultures reached an optical density of 2.0 at 600 nm. The cultures were cooled to 20° C. and induced with 1 mM IPTG. Fresh ampicillin was added to a final concentration of 50 μg/ml and the cells were grown overnight at 20° C.
Cell pellets (3L) were lysed for purification to yield 15-24 mgs of purified NS5B. The lysis buffer consisted of 20 mM Tris-HCl, pH 7.4, 500 mM NaCl, 0.5% triton X-100, 1 mM DTT, 1 mM EDTA, 20% glycerol, 0.5 mg/ml lysozyme, 10 mM MgCl2, 15 ug/ml deoxyribonuclease I, and Complete TM protease inhibitor tablets (Roche). After addition of the lysis buffer, frozen cell pellets were resuspended using a tissue homogenizer. To reduce the viscosity of the sample, aliquots of the lysate were sonicated on ice using a microtip attached to a Branson sonicator. The sonicated lysate was centrifuged at 100,000×g for 1 hr at 4° C. and filtered through a 0.2 μm filter unit (Corning).
The protein was purified using three sequential chromatography steps: Heparin sepharose CL-6B, polyU sepharose 4B, and Hitrap SP sepharose (Pharmacia). The chromatography buffers were identical to the lysis buffer but contained no lysozyme, deoxyribonuclease I, MgCl2 or protease inhibitor and the NaCl concentration of the buffer was adjusted according to the requirements for charging the protein onto the column. Each column was eluted with a NaCl gradient which varied in length from 5-50 column volumes depending on the column type. After the final chromatography step, the resulting purity of the enzyme is >90% based on SDS-PAGE analysis. The enzyme was aliquoted and stored at −80° C.
Standard HCV NS5B RdRp enzyme assay. HCV RdRp genotype 1b assays were run in a final volume of 60 μl in 96 well plates (Costar 3912). The assay buffer is composed of 20 mM Hepes, pH 7.5, 2.5 mM KCl, 2.5 mM MgCl2, 1 mM DTT, 1.6 U RNAse inhibitor (Promega N2515), 0.1 mg/ml BSA (Promega R3961), and 2% glycerol. All compounds were serially diluted (3-fold) in DMSO and diluted further in water such that the final concentration of DMSO in the assay was 2%. HCV RdRp genotype 1b enzyme was used at a final concentration of 28 nM. A polyA template was used at 6 nM, and a biotinylated oligo-dT12 primer was used at 180 nM final concentration. Template was obtained commercially (Amersham 27-4110). Biotinylated primer was prepared by Sigma Genosys. 3H-UTP was used at 0.6 μCi (0.29 μM total UTP). Reactions were initiated by the addition of enzyme, incubated at 30° C. for 60 min, and stopped by adding 25 μl of 50 mM EDTA containing SPA beads (4 μg/μl, Amersham RPNQ 0007). Plates were read on a Packard Top Count NXT after >1 hr incubation at room temperature.
Modified HCV NS5B RdRp enzyme assay. A modified enzyme assay was performed essentially as described for the standard enzyme assay except for the following: The biotinylated oligo dT12 primer was precaptured on streptavidin-coated SPA beads by mixing primer and beads in assay buffer and incubating at room temperature for one hour. Unbound primer was removed after centrifugation. The primer-bound beads were resuspended in 20 mM Hepes buffer, pH 7.5 and used in the assay at final concentrations of 20 nM primer and 0.67 μg/μl beads. Order of addition in the assay: enzyme (14 nM) was added to diluted compound followed by the addition of a mixture of template (0.2 nM), 3H-UTP (0.6 μCi, 0.29 μM), and primer-bound beads, to initiate the reaction; concentrations given are final. Reactions were allowed to proceed for 4 hours at 30° C.
IC50 values for compounds were determined using seven different [I]. […]

HCV replicon genotype 1a = experiment: HCV Replicon Luciferase Reporter Assay (LE Assay), genotype 1a replicon; assay type: cell-based, HCV genotype 1a; conditions: Hepatitis C virus, read-out: LE NeoLuc EC50
Description: (§1) The HCV replicon luciferase assay was developed to monitor the inhibitory effects of compounds described in the disclosure on HCV viral replication. Utilization of a replicon luciferase reporter assay was first described by Krieger et al (Krieger N, Lohmann V, and Bartenschlager R, J. Virol. 75(10):4614-4624 (2001)). HUH-7 cells, constitutively expressing the HCV replicon, were grown in Dulbeccors Modified Eagle Media (DMEM) (Gibco-BRL) containing 10% Fetal calf serum (FCS) (Sigma) and 1 mg/ml G418 (Gibco-BRL). Compounds were serially diluted 3 folds in DMSO for a twenty-point titration and subsequently transferred to sterile 384-well tissue-culture treated plates (Coming cat #3571). The plates were then seeded with 50 μl of cells at a density of 3.0×10^3 cells/well in DMEM containing 4% FCS (final DMSO concentration at 0.5%). After 3 days incubation at 37° C., cells were analyzed for Renilla Luciferase activity using the EnduRen as substrate (Promega cat #E6485). The EnduRen substrate was diluted in DMEM and then added to the plates to a final concentration of 7.5 μM. The plates were incubated for 2 hrs at 37° C. and then read immediately for 30 seconds with Viewlux Imager (PerkinElmer) using a luminescence program. To assess cytotoxicity of compounds, CC50 values were generated by multiplexing the EnduRen-containing plates with Cell Titer-Blue (Promega, cat #G8082). 3 μl of Cell-Titer Blue was added to each well and incubated for 8 hrs at 37° C. The fluorescence signal from each well was read, with an excitation wavelength at 525/10 nm and an emission wavelength of 598/10 nm, using the Viewlux Imager.

HCV replicon = experiment: HCV Replicon Luciferase Reporter Assay (LE Assay); assay type: cell-based, HCV genotype 1b; conditions: Hepatitis C virus
Description: as §1

[1] = genotype 1b, Huh-7, read-out: LE NeoLuc EC50, Table 1, HUH-7 cells, genotype 1b replicon
[2] = Huh-7, Table 2, HUH-7 cells, read-out: LE NeoLuc EC50

| Structure (SMILES) | IC50 (HCV NS5B; Table 1) [nM] | EC50 (HCV replicon genotype 1a) [nM] | EC50 (HCV replicon; [1]) [nM] | IC50 (HCV NS5B; Table 2) [nM] | EC50 (HCV replicon; [2]) [nM] |
| --- | --- | --- | --- | --- | --- |
| COc1ccc2c(c1)[C@@H]1C[C@]1(C(=O)N1CC34CCC3(CN(C(=O)N(C)C)C4)C1)Cn1c-2c(C2CCCCC2)c2ccc(C(=O)NS(=O)(=O)C(C)C)cc21 (some centres unmarked) | 1.9 to 500 | 1.9 to 500 | – | – | – |
| COc1ccc2c(c1)[C@@H]1C[C@]1(C(=O)N1CC34CCC3(CN(C(=O)N3CCOCC3)C4)C1)Cn1c-2c(C2CCCCC2)c2ccc(C(=O)NS(=O)(=O)N(C)C)cc21 (some centres unmarked) | 1.9 to 500 | 1.9 to 500 | – | – | – |
| COc1ccc2c(c1)[C@@H]1C[C@]1(C(=O)N1CC34CCC3(CN(C(=O)N3CCCC3)C4)C1)Cn1c-2c(C2CCCCC2)c2ccc(C(=O)NS(=O)(=O)C(C)C)cc21 (some centres unmarked) | 1.9 to 500 | 1.9 to 500 | – | – | – |
| COc1ccc2c(c1)[C@@H]1C[C@]1(C(=O)N1CC34CCC3(C1)CN(S(=O)(=O)C(C)C)C4)Cn1c-2c(C2CCCCC2)c2ccc(C(=O)NS(=O)(=O)C(C)C)cc21 (some centres unmarked) | 1.9 to 500 | – | 1.9 to 500 | – | – |
| COc1ccc2c(c1)[C@@H]1C[C@]1(C(=O)N1CC34CCC3(CN(C(=O)N3CCOCC3)C4)C1)Cn1c-2c(C2CCCCC2)c2ccc(C(=O)NS(=O)(=O)C(C)C)cc21 (some centres unmarked) | 1.9 to 500 | 1.9 to 500 | – | – | – |
| COc1ccc2c(c1)[C@@H]1C[C@]1(C(=O)N1CC34CCC3(CN(C(=O)N(C(C)C)C(C)C)C4)C1)Cn1c-2c(C2CCCCC2)c2ccc(C(=O)NS(=O)(=O)N(C)C)cc21 (some centres unmarked) | 1.9 to 500 | 1.9 to 500 | – | – | – |
| COc1ccc2c(c1)[C@@H]1C[C@]1(C(=O)N1CC34COCC3(CN(CC(F)(F)F)C4)C1)Cn1c-2c(C2CCCCC2)c2ccc(C(=O)NS(=O)(=O)N(C)C)cc21 (some centres unmarked) | 1.9 to 500 | 1.9 to 500 | – | – | – |
| COc1ccc2c(c1)[C@@H]1C[C@]1(C(=O)N1CC34CCC3(C1)C[N+]([O-])(CC(F)(F)F)C4)Cn1c-2c(C2CCCCC2)c2ccc(C(=O)NS(=O)(=O)N(C)C)cc21 (some centres unmarked) | < 1.7 | 1.9 to 500 | – | – | – |
| COc1ccc2c(c1)[C@@H]1C[C@]1(C(=O)N1CC34CCC3(C1)CN(S(=O)(=O)C(C)C)C4)Cn1c-2c(C2CCCCC2)c2ccc(C(=O)NS(=O)(=O)N(C)C)cc21 (some centres unmarked) | 1.9 to 500 | – | 1.9 to 500 | – | – |
| COc1ccc2c(c1)[C@@H]1C[C@]1(C(=O)N1CC34COCC3(C1)CN(S(=O)(=O)C(C)C)C4)Cn1c-2c(C2CCCCC2)c2ccc(C(=O)NS(=O)(=O)N(C)C)cc21 (some centres unmarked) | < 1.7 | 1.9 to 500 | – | – | – |
| COc1ccc2c(c1)[C@@H]1C[C@]1(C(=O)N1CC34CCC3(CN(CC(F)(F)F)C4)C1)Cn1c-2c(C2CCCCC2)c2ccc(C(=O)NS(=O)(=O)N(C)C)cc21 (some centres unmarked) | 1.9 to 500 | – | 1.9 to 500 | – | – |
| COC(=O)N1CC23CCC2(C1)CN(C(=O)[C@]12C[C@H]1c1cc(OC)ccc1-c1c(C4CCCCC4)c4ccc(C(=O)NS(=O)(=O)C(C)C)cc4n1C2)C3 (some centres unmarked) | 1.9 to 500 | – | 1.9 to 500 | – | – |
| COc1ccc2c(c1)C=C(C(=O)N1CC34COCC3(C1)N(C(C)=O)C4)Cn1c-2c(C2CCCCC2)c2ccc(C(=O)NS(=O)(=O)C(C)C)cc21 (centres unmarked) | 1.9 to 500 | – | 1.9 to 500 | – | – |
| COc1ccc2c(c1)[C@@H]1C[C@]1(C(=O)N1CC34COCC3(C1)CN(S(=O)(=O)C(C)C)C4)Cn1c-2c(C2CCCCC2)c2ccc(C(=O)NS(=O)(=O)C(C)C)cc21 (some centres unmarked) | 1.9 to 500 | 1.9 to 500 | – | – | – |
| COc1ccc2c(c1)[C@@H]1C[C@]1(C(=O)N1CC34COCC3(CN(CC(F)(F)F)C4)C1)Cn1c-2c(C2CCCCC2)c2ccc(C(=O)NS(=O)(=O)C(C)C)cc21 (some centres unmarked) | 1.9 to 500 | 1.9 to 500 | – | – | – |
| COc1ccc2c(c1)[C@@H]1C[C@]1(C(=O)N1CC34CCCC3(CN(C)C4)C1)Cn1c-2c(C2CCCCC2)c2ccc(C(=O)NS(=O)(=O)C(C)C)cc21 (some centres unmarked) | 1.9 to 500 | – | 1.9 to 500 | – | – |
| CCOCCN1CC23CCC2(C1)CN(C(=O)[C@]12C[C@H]1c1cc(OC)ccc1-c1c(C4CCCCC4)c4ccc(C(=O)NS(=O)(=O)C(C)C)cc4n1C2)C3 (some centres unmarked) | – | 1.9 to 500 | – | – | – |
| CNC(=O)N1CC23CCC2(C1)CN(C(=O)[C@]12C[C@H]1c1cc(OC)ccc1-c1c(C4CCCCC4)c4ccc(C(=O)NS(=O)(=O)C(C)C)cc4n1C2)C3 (some centres unmarked) [drawing 99] | < 1.7 | – | 1.9 to 500 | – | – |
| COc1ccc2c(c1)[C@@H]1C[C@]1(C(=O)N1CC34CCC3(C1)N(C(C)=O)C4)Cn1c-2c(C2CCCCC2)c2ccc(C(=O)NS(=O)(=O)C(C)C)cc21 (some centres unmarked) | 1.9 to 500 | – | 1.9 to 500 | – | – |
| COc1ccc2c(c1)[C@@H]1C[C@]1(C(=O)N1CC34CCC3(C1)CN(C1CC1)C4)Cn1c-2c(C2CCCCC2)c2ccc(C(=O)NS(=O)(=O)N(C)C)cc21 (some centres unmarked) | – | 1.9 to 500 | – | – | – |
| CNC(=O)N1CC23CCC2(C1)CN(C(=O)[C@]12C[C@H]1c1cc(OC)ccc1-c1c(C4CCCCC4)c4ccc(C(=O)NS(=O)(=O)C(C)C)cc4n1C2)C3 (some centres unmarked) [drawing 111] | – | – | – | < 1.7 | 60 |
| COc1ccc2c(c1)[C@@H]1C[C@]1(C(=O)N1CC34CCC3(CN(C)C4)C1)Cn1c-2c(C2CCCCC2)c2ccc(C(=O)NS(=O)(=O)C(C)C)cc21 (some centres unmarked) [drawing 108] | – | – | – | 3.5 | 6.96 |
| COc1ccc2c(c1)[C@@H]1C[C@]1(C(=O)N1CC34CCC3(CN(C)C4)C1)Cn1c-2c(C2CCCCC2)c2ccc(C(=O)NS(=O)(=O)C(C)C)cc21 (some centres unmarked) [drawing 71] | 1.9 to 500 | – | 1.9 to 500 | – | – |
